Data on 30 compounds can be found in US7473790B2 (Pfizer Inc., priority 2003, dated 2009).

What is called IC50 is the concentration at which inhibition is half-maximal.

The target of the assay is T1, HCV polymerase (Hepatitis C virus genotype 1b, UniProt P26663).
T1 construct: 2.5 pmoles (0.15 μg) HCV polymerase protein in a final volume of 75 μL
T1 sequence (P26663 2420-3010): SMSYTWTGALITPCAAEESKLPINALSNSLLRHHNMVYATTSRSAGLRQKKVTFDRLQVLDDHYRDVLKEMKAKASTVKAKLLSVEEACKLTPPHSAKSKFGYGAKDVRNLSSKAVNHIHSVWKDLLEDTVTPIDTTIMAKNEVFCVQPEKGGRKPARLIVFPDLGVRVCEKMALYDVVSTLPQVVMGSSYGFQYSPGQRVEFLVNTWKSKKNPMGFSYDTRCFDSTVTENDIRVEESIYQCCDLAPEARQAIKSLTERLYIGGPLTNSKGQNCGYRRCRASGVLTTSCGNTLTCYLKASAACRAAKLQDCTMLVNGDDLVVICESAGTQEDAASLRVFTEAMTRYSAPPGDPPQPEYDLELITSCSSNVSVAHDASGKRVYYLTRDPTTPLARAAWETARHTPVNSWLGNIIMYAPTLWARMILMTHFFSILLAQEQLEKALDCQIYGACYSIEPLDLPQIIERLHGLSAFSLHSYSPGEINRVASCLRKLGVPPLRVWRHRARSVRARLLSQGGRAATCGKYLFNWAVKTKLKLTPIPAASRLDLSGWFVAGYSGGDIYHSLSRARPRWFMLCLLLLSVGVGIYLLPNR
Briefly: HCV polymerase primer/template-directed transcription assay (32P-GTP incorporation, filter binding). In kind it is biochemical. The following applies: recombinant HCV polymerase; 30 minutes at 30° C.; concentration giving 50% inhibition of polymerase-directed transcription; read-out: IC50. An outline of the steps: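 IC50s come from triplicate cpm, refit with an enzyme-concentration (30 nM) correction when under 200 nM. Reactions ran 30 min at 30° C in Tris pH 7.2 with MgCl2, 1 μM GTP spiked with α-32P-GTP, biotin-dG12 primer and poly(rC)300 template, with 1% DMSO. Incorporated label was collected on DE filtermats and counted.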
For the compound `O=C1CC(=O)OC(CCc2ccc(O)c(C3CCCC3)c2)(C2CCCC2)C1` (stereo not drawn) [A(89), 6-cyclopentyl-6-[2-(3-cyclopentyl-4-hydroxyphenyl)ethyl]dihydro-2H-pyran-2,4(3H)-dione], the IC50 amounted to 2800 nM. On to `CCCc1cc(CCC2(C3CCCC3)CC(=O)CC(=O)O2)ccc1O` (stereo not drawn) [A(90), 6-cyclopentyl-6-[2-(4-hydroxy-3-propylphenyl)ethyl]dihydro-2H-pyran-2,4(3H)-dione], for which the IC50 was 770 nM. Turning to `CCC(C#N)(CC)c1ccc(CCC2(C3CCCC3)CC(=O)CC(=O)O2)cc1F` (stereo not drawn) [A(91), 2-{4-[2-(2-Cyclopentyl-4,6-dioxo-tetrahydro-pyran-2-yl)-ethyl]-2-fluoro-phenyl}-2-ethyl-butyronitrile], the IC50 was 500 nM. As for `N#CC1(c2ccc(CCC3(C4CCCC4)CC(=O)CC(=O)O3)cc2F)CCC1` (stereo not drawn) [A(92), 1-{4-[2-(2-Cyclopentyl-4,6-dioxo-tetrahydro-pyran-2-yl)-ethyl]-2-fluoro-phenyl}-cyclobutanecarbonitrile], the figure is 1000 nM; as for `CC(C)c1cc(CCC2(C3CCCC3)CC(=O)CC(=O)O2)ccc1O` (stereo not drawn) [A(93), 6-Cyclopentyl-6-[2-(4-hydroxy-3-isopropyl-phenyl)-ethyl]-dihydro-pyran-2,4-dione], 700 nM. With `CC(=O)Oc1ccc(CCC2(C3CCCC3)CC(=O)CC(=O)O2)cc1C(C)C` (stereo not drawn) [A(94), Acetic acid 4-[2-(2-cyclopentyl-4,6-dioxo-tetrahydro-pyran-2-yl)-ethyl]-2-isopropyl-phenyl ester], the half-maximal inhibitory concentration (IC50) worked out at 4000 nM. For the compound `O=C1CC(=O)OC(CCc2ccc(O)c(Cl)c2)(C2CCCC2)C1` (stereo not drawn) [A(95), 6-[2-(3-Chloro-4-hydroxy-phenyl)-ethyl]-6-cyclopentyl-dihydro-pyran-2,4-dione], the IC50 turned out to be 2100 nM. As for `CCc1cc(CCC2(C3CCCC3)CC(=O)CC(=O)O2)ccc1OC` (stereo not drawn) [A(96), 6-Cyclopentyl-6-[2-(3-ethyl-4-methoxy-phenyl)-ethyl]-dihydro-pyran-2,4-dione], the figure is 3200 nM. Consider `CCc1nc(C)c(CC2=C(O)CC(CCc3ccc(C(C)(C)C#N)c(F)c3)(C3CCCC3)OC2=O)[nH]1` (stereo not drawn) [A(97), 2-[4-(2-{2-cyclopentyl-5-[(2-ethyl-4-methyl-1H-imidazol-5-yl)methyl]-4-hydroxy-6-oxo-3,6-dihydro-2H-pyran-2-yl}ethyl)-2-fluorophenyl]-2-methylpropanenitrile], for which the concentration for half-maximal inhibition (IC50) came out at 290 nM. Regarding `Cn1c(CC2=C(O)CC(CCc3ccc(C(C)(C)C#N)c(F)c3)(C3CCCC3)OC2=O)nc2cc(Cl)ccc21` (stereo not drawn) [A(98), 2-[4-(2-{5-[(5-chloro-1-methyl-1H-benzimidazol-2-yl)methyl]-2-cyclopentyl-4-hydroxy-6-oxo-3,6-dihydro-2H-pyran-2-yl}ethyl)-2-fluorophenyl]-2-methylpropanenitrile], the IC50 was 10 nM. As to `CC(C)(C#N)c1ccc(CCC2(C3CCCC3)CC(O)=C(Cc3cc[nH]c(=O)c3)C(=O)O2)cc1F` (stereo not drawn) [A(99), 2-[4-(2-{2-cyclopentyl-4-hydroxy-6-oxo-5-[(2-oxo-1,2-dihydropyridin-4-yl)methyl]-3,6-dihydro-2H-pyran-2-yl}ethyl)-2-fluorophenyl]-2-methylpropanenitrile], the IC50 was 17 nM.

With `COc1cccc(CC2=C(O)CC(CCc3ccc(C(C)(C)C#N)c(F)c3)(C3CCCC3)OC2=O)c1` (stereo not drawn) [A(100), 2-(4-{2-[2-cyclopentyl-4-hydroxy-5-(3-methoxybenzyl)-6-oxo-3,6-dihydro-2H-pyran-2-yl]ethyl}-2-fluorophenyl)-2-methylpropanenitrile], the concentration for half-maximal inhibition (IC50) was determined as 88 nM. As for `CC(C)(C#N)c1ccc(CCC2(C3CCCC3)CC(O)=C(Cc3cccc(S(C)(=O)=O)c3)C(=O)O2)cc1F` (stereo not drawn) [A(101), 2-[4-(2-{2-cyclopentyl-4-hydroxy-5-[3-(methylsulfonyl)benzyl]-6-oxo-3,6-dihydro-2H-pyran-2-yl}ethyl)-2-fluorophenyl]-2-methylpropanenitrile], the figure is 66 nM. As for `Cn1cc(Cl)c(CC2=C(O)CC(CCc3ccc(C(C)(C)C#N)c(F)c3)(C3CCCC3)OC2=O)n1` (stereo not drawn) [A(102), 2-[4-(2-{5-[(4-chloro-1-methyl-1H-pyrazol-3-yl)methyl]-2-cyclopentyl-4-hydroxy-6-oxo-3,6-dihydro-2H-pyran-2-yl}ethyl)-2-fluorophenyl]-2-methylpropanenitrile], the figure is 5 nM; as for `CC(C)(C#N)c1ccc(CCC2(C3CCCC3)CC(O)=C(Cc3cn4ccccc4n3)C(=O)O2)cc1F` (stereo not drawn) [A(103), 2-(4-{2-[2-cyclopentyl-4-hydroxy-5-(imidazo[1,2-a]pyridin-2-ylmethyl)-6-oxo-3,6-dihydro-2H-pyran-2-yl]ethyl}-2-fluorophenyl)-2-methylpropanenitrile], 180 nM. As for `Cc1nc[nH]c1CC1C(=O)CC(CCc2ccc(C(C)(C)C#N)c(F)c2)(C2CCCC2)OC1=O` (stereo not drawn) [A(107), 2-(4-{2-[2-Cyclopentyl-5-(5-methyl-3H-imidazol-4-ylmethyl)-4,6-dioxo-tetrahydro-pyran-2-yl]-ethyl}-2-fluoro-phenyl)-2-methyl-propionitrile], the figure is 360 nM; as for `CC(C)(C#N)c1ccc(CCC2(C3CCCC3)CC(=O)C(Cc3nc4ncc(Cl)cn4n3)C(=O)O2)cc1F` (stereo not drawn) [A(111), 2-(4-{2-[5-(6-Chloro-[1,2,4]triazolo[1,5-a]pyrimidin-2-ylmethyl)-2-cyclopentyl-4,6-dioxo-tetrahydro-pyran-2-yl]-ethyl}-2-fluoro-phenyl)-2-methyl-propionitrile], 2 nM.

For the compound `CCC(C#N)(CC)c1ccc(CCC2(C3CCCC3)CC(=O)C(Cc3nc4nc(C)cc(C)n4n3)C(=O)O2)cc1F` (stereo not drawn) [A(112), 2-(4-{2-[2-Cyclopentyl-5-(5,7-dimethyl-[1,2,4]triazolo[1,5-a]pyrimidin-2-ylmethyl)-4,6-dioxo-tetrahydro-pyran-2-yl]-ethyl}-2-fluoro-phenyl)-2-ethyl-butyronitrile], the half-inhibitory concentration (IC50) was determined as 6 nM. For the compound `Cc1cnc2nc(CC3C(=O)CC(CCc4ccc(C5(C#N)CC5)c(F)c4)(C4CCCC4)OC3=O)nn2c1` (stereo not drawn) [A(113), 1-(4-{2-[2-Cyclopentyl-5-(6-methyl-[1,2,4]triazolo[1,5-a]pyrimidin-2-ylmethyl)-4,6-dioxo-tetrahydro-pyran-2-yl]-ethyl}-2-fluoro-phenyl)-cyclopropanecarbonitrile], the half-inhibitory concentration (IC50) was determined as 8 nM. `N#CC1(c2ccc(CCC3(C4CCCC4)CC(=O)C(Cc4nc5ncccn5n4)C(=O)O3)cc2F)CC1` (stereo not drawn) [A(114), 1-{4-[2-(2-Cyclopentyl-4,6-dioxo-5-[1,2,4]triazolo[1,5-a]pyrimidin-2-ylmethyl-tetrahydro-pyran-2-yl)-ethyl]-2-fluoro-phenyl}-cyclopropanecarbonitrile]: the IC50 worked out at 10 nM.

As for `N#CC1(c2ccc(CCC3(C4CCCC4)CC(=O)C(Cc4nc5ncc(Cl)cn5n4)C(=O)O3)cc2F)CC1` (stereo not drawn) [A(115), 1-(4-{2-[5-(6-Chloro-[1,2,4]triazolo[1,5-a]pyrimidin-2-ylmethyl)-2-cyclopentyl-4,6-dioxo-tetrahydro-pyran-2-yl]-ethyl}-2-fluoro-phenyl)-cyclopropanecarbonitrile], the IC50 was determined as 5 nM.

Regarding `Cc1cc(C)n2nc(CC3=C(O)CC(CCc4ccc(CCO)c(F)c4)(C4CCCC4)OC3=O)nc2n1` (stereo not drawn) [A(119), 6-Cyclopentyl-3-(5,7-dimethyl-[1,2,4]triazolo[1,5-a]pyrimidin-2-ylmethyl)-6-{2-[3-fluoro-4-(2-hydroxy-ethyl)-phenyl]-ethyl}-4-hydroxy-5,6-dihydro-pyran-2-one], the half-inhibitory concentration (IC50) came out at 1200 nM.

For `O=C1CC(=O)OC(CCc2ccc(CCO)c(F)c2)(C2CCCC2)C1` (stereo not drawn) [A(120)], the IC50 came out at 13000 nM.

On to `CC(C)(CO)c1ccc(CCC2(C3CCCC3)CC(=O)CC(=O)O2)cc1F` (stereo not drawn) [A(121), 6-Cyclopentyl-6-{2-[3-fluoro-4-(2-hydroxy-1,1-dimethyl-ethyl)-phenyl]-ethyl}-dihydro-pyran-2,4-dione], for which the half-inhibitory concentration (IC50) turned out to be 1300 nM. As for `O=C1CC(=O)OC(CCc2cc(F)cc(F)c2)(C2CCCC2)C1` (stereo not drawn) [A(122), 6-Cyclopentyl-6-[2-(3,5-difluoro-phenyl)-ethyl]-dihydro-pyran-2,4-dione], the figure is 31000 nM; as for `CCc1cc(CCC2(C3CCCC3)CC(O)=C(Cc3nc4nc(C)cc(C)n4n3)C(=O)O2)cc(F)c1O` (stereo not drawn) [A(123), 6-Cyclopentyl-3-(5,7-dimethyl-[1,2,4]triazolo[1,5-a]pyrimidin-2-ylmethyl)-6-[2-(3-ethyl-5-fluoro-4-hydroxy-phenyl)-ethyl]-4-hydroxy-5,6-dihydro-pyran-2-one], 12 nM; as for `CCc1cc(CCC2(C3CCCC3)CC(=O)CC(=O)O2)cc(F)c1O` (stereo not drawn) [A(124), 6-Cyclopentyl-6-[2-(3-ethyl-5-fluoro-4-hydroxy-phenyl)-ethyl]-dihydro-pyran-2,4-dione], 350 nM. Take `CCc1cc(CCC2(C3CCCC3)CC(O)=C(Cc3nc4ncc(C)cn4n3)C(=O)O2)cc(F)c1O` (stereo not drawn) [A(125), 6-Cyclopentyl-6-[2-(3-ethyl-5-fluoro-4-hydroxy-phenyl)-ethyl]-4-hydroxy-3-(6-methyl-[1,2,4]triazolo[1,5-a]pyrimidin-2-ylmethyl)-5,6-dihydro-pyran-2-one]: the IC50 turned out to be 11 nM.

For the compound `CCc1cc(CCC2(C3CCCC3)CC(O)=C(Cc3nc4ncc(C)cn4n3)C(=O)O2)ccc1O` (stereo not drawn) [A(126), 6-Cyclopentyl-6-[2-(3-ethyl-4-hydroxy-phenyl)-ethyl]-4-hydroxy-3-(6-methyl-[1,2,4]triazolo[1,5-a]pyrimidin-2-ylmethyl)-5,6-dihydro-pyran-2-one], the IC50 is 9 nM. As for `CCc1cc(CCC2(C3CCCC3)CC(O)=C(Cc3nc4ncc(Cl)cn4n3)C(=O)O2)ccc1O` (stereo not drawn) [A(127), 3-(6-Chloro-[1,2,4]triazolo[1,5-a]pyrimidin-2-ylmethyl)-6-cyclopentyl-6-[2-(3-ethyl-4-hydroxy-phenyl)-ethyl]-4-hydroxy-5,6-dihydro-pyran-2-one], the figure is 5 nM.
